Like-named read-outs stand apart in the source and are kept apart here.
How the values were obtained:
Experiment in all cases: 5-day viable cell number and apoptosis (7-AAD exclusion/Annexin V flow cytometry)
Type in all cases: cell-based
DB = DB cells, 5 days
From the text: (§1) The DLBCL panel includes seven cell lines classified as activated B-cell (ABC) subtype, thirteen cell lines classified as the germinal center B-cell (GCB) subtype, and three cell lines classified as primary mediastinal B-cell lymphoma (PMBL). […] The translocation of MYC, BCL6, or BCL2 to an IG locus usually leads to high levels of mRNA and protein due to the active transcription driven by a constitutively active IG promoter. […] Expressions of CRBN protein and known substrates, Ikaros, Aiolos, and ZFP91 were also evaluated (FIG. 1, panels B and C).
(§2) The panel of cell lines were treated with increasing doses of compounds for five days, at which time the number of viable cells was measured and the amount of apoptosis was determined by 7-AAD exclusion and Annexin V staining using flow cytometry.

OCI-LY-19 = OCI-LY-19 cells, 5 days
From the text: as §1, §2

Toledo = Toledo cells, 5 days
From the text: as §1, §2

U2932 = system: U2932
From the text: as §1, §2

OCI-LY-7 = system: OCI-LY-7
From the text: as §1, §2

RC-K8 = system: RC-K8
From the text: as §1, §2

TMD8 = TMD8 cells, 5 days
From the text: as §1, §2

Pfeiffer = system: Pfeiffer
From the text: as §1, §2

Farage = system: Farage
From the text: as §1, §2

OCI-LY-3 = OCI-LY-3 cells, 5 days
From the text: as §1, §2

[1] = Homo sapiens, 120 h, read-out: % Viable Cells IC50
[2] = Homo sapiens, 120 h, U2932 cells, 5 days
[3] = Homo sapiens, OCI-Ly7, 120 h, OCI-LY-7 cells, 5 days
[4] = Homo sapiens, RCK8, 120 h, RC-K8 cells, 5 days
[5] = Homo sapiens, 120 h, Pfeiffer cells, 5 days

O=C1CC[C@H](N2C(=O)c3cccc(NCc4ccc(CN5CC(N6CCOCC6)C5)cc4F)c3C2=O)C(=O)N1 [Compound 1, (S)-2-(2,6-dioxopiperidin-3-yl)-4-((2-fluoro-4-((3-morpholinoazetidin-1-yl)methyl)benzyl)amino)isoindoline-1,3-dione]
% Viable Cells AUC (DB): 1173 | % Viable Cells Emax (DB): 107.1% | % Viable Cells Sensitivity (DB): Limited | Apoptosis AUC (DB): 0 | Apoptosis Sensitivity (DB): Limited | EC50 (OCI-LY-19; Homo sapiens, OCI-LY19, 120 h): 80.9 nM | Emax (OCI-LY-19; Homo sapiens, OCI-LY19, 120 h): 30.6% | IC50 (OCI-LY-19; Homo sapiens, OCI-LY19, 120 h, read-out: % Viable Cells IC50): 30 nM | % Viable Cells AUC (OCI-LY-19): 283.3 | % Viable Cells Emax (OCI-LY-19): 28.11% | % Viable Cells Sensitivity (OCI-LY-19): Intermediate (intermediate sensitivity with 15% to 55% cell viability) | Apoptosis AUC (OCI-LY-19): 293.5 | Apoptosis Sensitivity (OCI-LY-19): Intermediate | EC50 (Toledo; Homo sapiens, 120 h): 500 nM | Emax (Toledo; Homo sapiens, 120 h): 14% | IC50 (Toledo; [1]): 500 nM | % Viable Cells AUC (Toledo): 507 | % Viable Cells Emax (Toledo): 52.68% | % Viable Cells Sensitivity (Toledo): Intermediate (intermediate sensitivity with 15% to 55% cell viability) | Apoptosis AUC (Toledo): 114.8 | Apoptosis Sensitivity (Toledo): Intermediate | EC50 (U2932; [2]): 11900 nM | Emax (U2932; [2]): 69.9% | IC50 (U2932; Homo sapiens, 120 h, U2932 cells, 5 days, read-out: % Viable Cells IC50): 100 nM | IC50 (U2932; Homo sapiens, U2932 cells (Table 3), read-out: IC50): 327000 nM | % Viable Cells AUC (U2932; U2932 cells, 5 days): 327.1 | % Viable Cells Emax (U2932; U2932 cells, 5 days): 24.81% | % Viable Cells Sensitivity (U2932; U2932 cells, 5 days): Intermediate (intermediate sensitivity with 15% to 55% cell viability) | Apoptosis AUC (U2932; U2932 cells, 5 days): 280.5 | Apoptosis Sensitivity (U2932; U2932 cells, 5 days): Intermediate | EC50 (OCI-LY-7; [3]): 12.8 nM | Emax (OCI-LY-7; [3]): 68.8% | IC50 (OCI-LY-7; Homo sapiens, OCI-Ly7, 120 h, OCI-LY-7 cells, 5 days, read-out: % Viable Cells IC50): 3.6 nM | IC50 (OCI-LY-7; Homo sapiens, OCI-Ly7, OCI-LY-7 cells (Table 3), read-out: IC50): 62000 nM | % Viable Cells AUC (OCI-LY-7; OCI-LY-7 cells, 5 days): 61.98 | % Viable Cells Emax (OCI-LY-7; OCI-LY-7 cells, 5 days): 1.657% | % Viable Cells Sensitivity (OCI-LY-7; OCI-LY-7 cells, 5 days): High (highly sensitive to Compound 1 with less than 6% viable cells remaining (Emax) after treatment) | Apoptosis AUC (OCI-LY-7; OCI-LY-7 cells, 5 days): 673.2 | Apoptosis Sensitivity (OCI-LY-7; OCI-LY-7 cells, 5 days): High | EC50 (RC-K8; [4]): 230 nM | Emax (RC-K8; [4]): 9.53% | IC50 (RC-K8; Homo sapiens, RCK8, 120 h, RC-K8 cells, 5 days, read-out: % Viable Cells IC50): 100 nM | IC50 (RC-K8; Homo sapiens, RCK8, RC-K8 cells (Table 3), read-out: IC50): 409000 nM | % Viable Cells AUC (RC-K8; RC-K8 cells, 5 days): 409.1 | % Viable Cells Emax (RC-K8; RC-K8 cells, 5 days): 34.92% | % Viable Cells Sensitivity (RC-K8; RC-K8 cells, 5 days): Intermediate (intermediate sensitivity with 15% to 55% cell viability) | Apoptosis AUC (RC-K8; RC-K8 cells, 5 days): 81.59 | Apoptosis Sensitivity (RC-K8; RC-K8 cells, 5 days): Intermediate | EC50 (TMD8; Homo sapiens, 120 h): 4.44 nM | Emax (TMD8; Homo sapiens, 120 h): 83.2% | IC50 (TMD8; [1]): 3 nM | % Viable Cells AUC (TMD8): 3.911 | % Viable Cells Emax (TMD8): 1.365% | % Viable Cells Sensitivity (TMD8): High (highly sensitive to Compound 1 with less than 6% viable cells remaining (Emax) after treatment) | Apoptosis AUC (TMD8): 826.8 | Apoptosis Sensitivity (TMD8): High | EC50 (Pfeiffer; [5]): 300 nM | Emax (Pfeiffer; [5]): 8.01% | IC50 (Pfeiffer; Homo sapiens, Pfeiffer cells (Table 3)): 855000 nM | % Viable Cells AUC (Pfeiffer; Pfeiffer cells, 5 days): 912.3 | % Viable Cells Emax (Pfeiffer; Pfeiffer cells, 5 days): 86.19% | % Viable Cells Sensitivity (Pfeiffer; Pfeiffer cells, 5 days): Limited | Apoptosis AUC (Pfeiffer; Pfeiffer cells, 5 days): 133.5 | Apoptosis Sensitivity (Pfeiffer; Pfeiffer cells, 5 days): Limited | EC50 (Farage; 120 h, Farage cells, 5 days): 73.6 nM | Emax (Farage; 120 h, Farage cells, 5 days): 54.2% | IC50 (Farage; 120 h, Farage cells, 5 days, read-out: % Viable Cells IC50): 3.7 nM | IC50 (Farage; Farage cells (Table 3), read-out: IC50): 59000 nM | % Viable Cells AUC (Farage; Farage cells, 5 days): 59.29 | % Viable Cells Emax (Farage; Farage cells, 5 days): 1.676% | % Viable Cells Sensitivity (Farage; Farage cells, 5 days): High (highly sensitive to Compound 1 with less than 6% viable cells remaining (Emax) after treatment) | Apoptosis AUC (Farage; Farage cells, 5 days): 503.6 | Apoptosis Sensitivity (Farage; Farage cells, 5 days): High | EC50 (OCI-LY-3; Homo sapiens, OCI-Ly3, 120 h): 0.46 nM | Emax (OCI-LY-3; Homo sapiens, OCI-Ly3, 120 h): 0.753% | % Viable Cells AUC (OCI-LY-3): 986.1 | % Viable Cells Emax (OCI-LY-3): 84.33% | % Viable Cells Sensitivity (OCI-LY-3): Limited | Apoptosis AUC (OCI-LY-3): 7.009 | Apoptosis Sensitivity (OCI-LY-3): Limited
